Measurements taken from patent US20140187505A1, “Cardiac Glycosides to Treat Cystic Fibrosis and Other IL-8 Dependent Disorders” (priority 2002, published 2014).
Values joined by “and” are separate entries in the source; they are usually repeats but may differ in a detail not shown here. Equal values may be shown once. Read-outs that look alike come from different tables or passages of the source.

Legend:
[1] = system: IL-8 secretion from cystic fibrosis lung epithelial IB3-1 cells
[2] = octanol/water (20 mM TRIS-HCl, pH 7.4); cited from earlier work
[3] = eluent acetonitrile/water 45:55; cited from earlier work
[4] = mobile phase: methanol/water 30:70; cited from earlier work
[5] = system: guinea-pig heart Na^+-K^+-ATPase; conditions: cited from earlier work
[6] = system: human vascular endothelial cells (HUVEC); conditions: in vitro, read-out: 50% kill concentration; cited from earlier work
[7] = for 70 kg man; cited from earlier work
[8] = system: HeLa cervical cancer cells; assay: cells; conditions: Homo sapiens, 24 h, read-out: IC50 dose for cell death
[9] = system: HeLa cervical cancer cells; conditions: human
[10] = Homo sapiens, IB3-1, 48 h, read-out: IC50 nmol/L in cells
[11] = Homo sapiens, IB3-1, 48 h, read-out: IC50 (K50) for spontaneous IL-8 secretion

SMILES	IC50 ([1]; read-out: IC50 nmol/L in cells, 50% suppression of spontaneous IL-8 secretion, IB3-1 cells, 48 hours) [nmol/L]	P (partition coefficient in octanol/water system) [2]	IC50 [1, 10] [nmol/L]	K retentions for reversed-phase high pressure liquid chromatography [3]	RM values (lipophilicity, reversed-phase thin layer chromatography) [4]	ID50 [5]	IC50 [1, 11] [nmol/L]	IC50 [6]	Human toxicity limit [7] [nmol]	Human toxicity limit, Nmol/L = nM [7] [nM]	IC50 [8] [nM]	Threshold concentration for an increase in cell death [9]
CC(=O)O[C@H]1CC[C@]2(C=O)[C@H]3CC[C@]4(C)[C@@H](C5=CC(=O)OC5)CC[C@]4(O)[C@@H]3CC[C@]2(O)C1 [acetylstrophanthdin, acetyl-strophanthidin]	117											
C[C@]12CC[C@H](O)C[C@H]1CC[C@@H]1[C@@H]2CC[C@]2(C)[C@@H](C3=CC(=O)OC3)CC[C@]12O [digitoxigenin]		270.0 ± 94.1	74	1.81	1.03	1.63 ± 0.06 ×10^−4 mol l^−1						
C[C@]12CC[C@H](O)C[C@H]1CC[C@@H]1[C@@H]2C[C@@H](O)[C@]2(C)[C@@H](C3=CC(=O)OC3)CC[C@]12O [digoxigenin]		13.5 ± 2.3	34									
C[C@H]1O[C@@H](O[C@H]2[C@@H](O)C[C@H](O[C@H]3[C@@H](O)C[C@H](O[C@H]4CC[C@@]5(C)[C@H](CC[C@@H]6[C@@H]5C[C@@H](O)[C@]5(C)[C@@H](C7=CC(=O)OC7)CC[C@]65O)C4)O[C@@H]3C)O[C@@H]2C)C[C@H](O)[C@@H]1O [digoxin]			27	0.50	0.25	0.90 ± 0.07 ×10^−4 mol l^−1	~27	~210 nM	1900	27.1		
CO[C@H]1C[C@H](O[C@H]2CC[C@@]3(C)[C@H](CC[C@@H]4[C@@H]3CC[C@]3(C)[C@@H](C5=CC(=O)OC5)[C@@H](OC(C)=O)C[C@]43O)C2)O[C@@H](C)[C@@H]1O [oleandrin]			2				~2				~100	ca. 30 nM
C[C@@H]1O[C@@H](O[C@H]2C[C@@H](O)[C@]3(CO)[C@H]4[C@H](O)C[C@]5(C)[C@@H](C6=CC(=O)OC6)CC[C@]5(O)[C@@H]4CC[C@]3(O)C2)[C@H](O)[C@H](O)[C@H]1O [ouabain]		0.02 and 0.02 ± 0.00	8	0.14	−0.73	2.28 ± 0.10 ×10^−4 mol l^−1		240 nM and 357 nM and ~240 nM and ~357 nM	1683		~200	ca. 50 nM
